Reference: patent publication US9072756B2, “Methods and compositions for increasing the efficacy of an agent that directly or indirectly affects a muscarinic receptor through administration of a pyrophosphate analog” (HealthPartners Research Foundation, priority 2000, dated 2015)
pEC50: −log10 of the molar value. Read-outs that look alike come from different tables or passages of the source.

How the values were obtained:
[1] = test system: muscarinic acetylcholine receptor (mAChR); assay: Protection of mAChR from inactivation by the endogenous LMW inhibitor, [3H]QNB (antagonist) binding; parameters: species or system human; conditions: for protection of the mAChR from inactivation by the LMW inhibitor (in words): FIGS. 4-7, 15, 17, 19; for pEC50: read-out: concentration that provides 50% protection of the mAChR
[2] = biological target: muscarinic acetylcholine receptor (mAChR); conditions: read-out: concentration that provides 50% protection of the mAChR from damage by PbCl2, 3H-QNB binding, FIG. 20
[3] = biological target: muscarinic acetylcholine receptor (mAChR); assay: Protection of mAChR from inactivation by heme and peroxide, [3H]QNB (antagonist) binding; parameters: species or system human; conditions: 3H-QNB binding, FIG. 16
[4] = LMW inhibitor, 3H-QNB binding, FIGS. 11, 13, 14

Molecule	protection of the mAChR from inactivation by the LMW inhibitor (in words) ([1]; LMW inhibitor, 3H-QNB binding)	pEC50 [1, 4]	other results
Nc1ncnc2c1ncn2[C@@H]1O[C@H](COP(=O)(O)OP(=O)(O)NP(=O)(O)O)[C@@H](O)[C@H]1O [adenylylimidodiphosphate]	protect the mAChR from inactivation	–	–
C=CC1=C(C)/C(=C/C2=NC(=C\c3[nH]c(/C=C4\NC(=O)C(C)=C4C=C)c(C)c3CCC(=O)O)/C(CCC(=O)O)=C2C)NC1=O [biliverdin]	–	5.52	–
CC(C)c1cc2c(c(O)c1O)[C@@]13CCCC(C)(C)[C@@H]1C[C@@H]2OC3=O [carnosol]	–	–	protection of the mAChR from inactivation ([1]; at 1 μM, LMW inhibitor, 3H-QNB binding, FIG. 12): 100%
O=c1c(O)c(-c2cc(O)c(O)c(O)c2)oc2cc(O)cc(O)c12 [myricetin]	–	6.40	–
O=P(O)(O)OP(=O)(O)O [pyrophosphate]	–	–	pEC50 ([1]; inactivation by LMW inhibitor or heme and peroxide, loss of antagonist (3H-QNB) and agonist (3H-Oxotremorine M) binding, FIGS. 1-3, not specified further): ~6.00; pEC50 [2]: ~4.24
O=c1c(O)c(-c2ccc(O)c(O)c2)oc2cc(O)cc(O)c12 [quercetin]	–	6.62	–
O=P(O)(O)OP(=O)(O)OP(=O)(O)O [tripolyphosphate]	protect the mAChR from inactivation	–	–
catalase	protected the mAChR from inactivation	–	amount that provided 50% protection from inactivation by heme and peroxide [3]: 0.34 units/mL
